Test results taken from PMC5895803, “Inhibition of cancer stem cell like cells by a synthetic retinoid” (Nature Communications, 2018).

Experiments:
[1] = tested on: unselected B16-F1 melanoma cells; assay: Proliferation of unselected B16-F1 cells on 2D rigid dishes; type: cell-based, murine; details: 10 μM, 48 hours
Description: Supplementary Figure 9. WYC-209 detaches adherent melanoma cells on rigid plastic. Murine melanoma cell line B16-F1 were cultured on rigid plastics and treated with 10 μM WYC-209 and observed for 48 hours. Cell nucleus were stained with DAPI. DMSO: medium containing 0.1% DMSO. (a) Representative images of cells stained with DAPI 48 hrs after treatment. Scale bars, 500 μm. (b) Quantitation of cell numbers per view field of B16-F1 treated with WYC-209. Mean ± s.e.m.; n=5 samples; 3 independent experiments; *** P<0.001 (Student’s t-test).
(§1) (1 picture or pasted object on this page, not shown here)

Mitf = Mitf expression by qPCR in TRCs; type: cell-based, murine; details: 0.1–10 µM for 24 h
Description: (§2) Total mRNA was isolated from the cells using the Trizol reagent according to the supplier’s instruction (Invitrogen). Reverse transcription (RT) was performed using the TransScript First-strand cDNA Synthesis SuperMix (TransGen), according to the manufacturer’s protocol. Real-time RT-PCR was performed using GoTaq qPCR Master Mix (Promega). The data were normalized against mouse glyceraldehyde 3-phosphate dehydrogenase. The primer sequences are as follows: mouse GAPDH (F: 5′-[…]-3′, R: 5′-[…]-3′); mouse RARα (F: 5′-[…]-3′, R: 5′-[…]-3′); mouse RARβ (F: 5′-[…]-3′, R: 5′-[…]-3′); mouse RARγ (F: 5′-[…]-3′, R:5′-[…]-3′); mouse Sox2 (F: 5′-[…]-3′, R: 5′-[…]-3′); mouse Mitf (F: 5′-[…]-3′, R: 5′-[…]-3′).
(§3) Supplementary Figure 39. WYC-209 decreases Sox2 expression but has no effects on Mitf expression. Murine melanoma cells B16-F1 were seeded into 3D soft fibrin gels and then were treated with 0.1% DMSO, 0.1, 1 or 10 µM WYC-209, WYC-209A, or WYC-209B on day 4. mRNA of cells were extracted after 24 hours. Sox2 (a) and Mitf (b) expressions […]
as §1

[2] = tested on: B16-F1 melanoma cells / TRCs; assay: Apoptosis by Annexin-V and PI flow cytometry; type: cell-based, murine; details: 10 μM, 24 h after treatment
Description: For Annexin-V and PI staining to quantify cell apoptosis, treated TRCs were isolated from 3D fibrin gel by using 5 mg mL^−1 Dispase II (Sigma), cells were labeled with FITC-conjugated Annexin-V and PI according to the manufacturer’s instruction (Biolegend). Data were acquired on a BD Cantoll (BD biosciences) and analyzed with FlowJo software. For BrdU staining to quantify cell proliferation, cells were labeled with FITC-conjugated anti-BrdU antibody according to the manufacturer’s instruction (FITC BrdU Flow Kit, BD Biosciences) and then data were acquired on an Accuri C6 (BD Biosciences) and analyzed with BD Accuri C6 software.
Supplementary Figure 12. WYC-209 induces TRC apoptosis at 10 µM. (a)
Murine melanoma B16-F1 cells were seeded into 3D soft fibrin gels and then treated […]
The cells were collected after 24 hours and stained with FITC-conjugated Annexin-V and PI for apoptotic detection by flow cytometry. Apoptotic cells (%) = 100% - (Annexin-V-PI-) %. Mean ± s.e.m.; 3 separate experiments; *** P<0.001 (Student’s t-test). (b) Original images of flow cytometry of (a).
as §1
Supplementary Figure 38. WYC-209 induces tumor cell apoptosis. […]

Sox2 = Sox2 expression by qPCR in TRCs; type: cell-based, murine
Description: as §2, §3, §1

[3] = tested on: human melanoma MDA-MB-435s; assay: Colony growth of MDA-MB-435s TRCs in 90-Pa fibrin gels; type: cell-based
Description: Salmon fibrinogen and thrombin were purchased from Reagent Proteins (CA, USA). 3D fibrin gels were prepared as described previously[5],[6]. In brief, fibrinogen was diluted into 2 mg mL^−1 with T7 buffer (pH 7.4, 50 mM Tris, 150 mM NaCl). Cells were detached from 2D rigid dishes and cell density was adjusted to 10^4 cells per mL. Fibrinogen and cell solution mixture were made by mixing the same volume of fibrinogen solution and cell solution, resulting in 1 mg mL^−1 fibrinogen and 5000 cells per mL in the mixture fibrin gels. A volume of 50 μL cell/fibrinogen mixture was seeded into each well of 96-well plate and mixed well with pre-added 1 μL thrombin (100 U mL^−1). The cell culture plate was then incubated in 37 °C cell culture incubator for 10 min. Finally, 200 μL of DMEM medium containing 10% FBS and antibiotics was added.

Structure (SMILES): CCOC(=O)c1cnc(C#Cc2ccc3c(c2)C(C)(C)CC[S+]3[O-])nc1 (stereo not shown) [WYC-209]
- Proliferation of unselected B16-F1 cells on 2D rigid dishes [1]: completely inhibited
- Change in Mitf expression (Mitf): did not change
- Apoptosis of un-selected melanoma cells or melanoma TRCs [2]: ~ 95%
- Decrease of Sox2 expression (Sox2; 10 μM, 24 h): ~ 50%
- Change in Sox2 expression (Sox2; 0.1 or 1 µM): no change
- IC50 ([3]; 0 h, treated on day 0): 520 nM
- inhibition at 10 µM ([3]; 10 μM): 100%
